{"source": "patent US20250367209A1", "about": "(SOUTHERN RESEARCH INSTITUTE, priority 2022, published 2025)", "key": {"[1]": {"molecular_target": "full-length Tau (Homo sapiens (Human), UniProt P10636)", "sequence (P10636 other isoform, or with tags, fused parts or gaps)": "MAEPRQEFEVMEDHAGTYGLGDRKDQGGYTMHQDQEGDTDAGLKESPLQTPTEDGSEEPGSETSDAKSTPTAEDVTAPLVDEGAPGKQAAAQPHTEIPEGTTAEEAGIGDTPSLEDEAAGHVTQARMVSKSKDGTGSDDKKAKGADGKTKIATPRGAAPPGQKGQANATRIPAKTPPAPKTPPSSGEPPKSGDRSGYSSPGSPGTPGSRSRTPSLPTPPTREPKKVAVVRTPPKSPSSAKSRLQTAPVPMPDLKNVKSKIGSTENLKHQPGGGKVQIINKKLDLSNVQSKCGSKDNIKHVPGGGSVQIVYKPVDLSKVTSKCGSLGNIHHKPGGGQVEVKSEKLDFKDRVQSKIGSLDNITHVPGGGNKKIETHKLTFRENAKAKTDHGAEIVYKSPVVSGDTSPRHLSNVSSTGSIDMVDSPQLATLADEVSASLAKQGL", "experiment": "Isothermal titration calorimetry, full-length Tau", "type": "binding", "excerpt": "Human Fyn-SH3 domain with GST-tag at the N-terminus and a Strep-tag II ([…]) at the C-terminus (GST-Fyn-SH3-Strep) was cloned into pPR-IBA1 vector (IBA Lifesciences) (Cochran, et al. (2014) J. Biomol. Screen. 19, 1338-1349). Codon-optimized human 4R2N Tau for E. coli expression with a Strep-tag II at the C-terminus (His-Tau-Strep) was cloned into pET-28a(+) vector (Novagen). The constructs were transformed into E. coli BL-21(DE3) competent cells (Novagen). For GST-Fyn-SH3-Strep purification, a single colony was inoculated in Luria-Bertani (LB) broth at 37° C. overnight. 10 mL cell culture was added into 500 mL LB medium and cultured at 37° C. 0.5 mM Isopropyl β-D-1-thiogalactopyranoside (IPTG) was added into the culture when OD600 reached 0.7. Cells were further cultured at 25° C. for 4 hours and harvested. Cell pellet was resuspended in lysis buffer (20 mM Tris pH 7.9, 300 mM NaCl, 1 mM TCEP) with 1 tablet of EDTA-free protease inhibitors (ThermoFisher) and 1 mg/ml lysozyme. Cells were disrupted by sonication and debris was removed by centrifugation at 9500 rpm for 1 hour. Supernatant was loaded onto a glutathione-sepharose column (Cytiva). The column was washed in lysis buffer and protein eluted in lysis buffer containing 25 mM reduced glutathione. For His-Tau-Strep protein purification, cells were inoculated in LB broth medium and cultured at 37° C. overnight. A 10 mL overnight culture was added to 500 mL of auto-induction medium (Studier, F. W. (2005) Protein Expr Purif 41, 207-34) and cells were cultured at 37° C. for about 5 hours. The temperature was lowered to 18° C., and cells were cultured overnight. Cells were harvested and resuspended in lysis buffer with 20 mM imidazole, protease inhibitors, and lysozyme. Cells were disrupted by sonication and cell pellets were spun down at 9500 rpm for 1 hour. Supernatant was loaded onto Ni-NTA column (Cytiva) and the column was washed in lysis buffer with 20 mM imidazole. His-Tau-Strep protein was eluted in lysis buffer containing 400 mM imidazole. Both eluted GST-Fyn-SH3-Strep and His-Tau-Strep protein solutions were passed through G-25 desalting column (Cytiva) with lysis buffer and loaded onto high capacity Strep-Tactin column (IBA Lifesciences). The columns were washed in Buffer W (IBA Life sciences) and proteins were eluted in Buffer E (IBA life sciences). The eluted proteins were passed through G-25 desalting column again. […]\nPurified full-length Tau and FynSH3 were dialyzed into 20 mM Tris and 150 mM NaCl, pH 8.0 with Slide-A-Lyzer G2 Dialysis Cassettes with 10K MWCO (ThermoFisher #87729). […] Protein concentrations were measured on a Nanodrop2000 (ThermoFisher) based on absorbance at 280 nm. […]"}, "[2]": {"molecular_target": "Tau-LckSH3 interaction (Homo sapiens (Human), UniProt P10636)", "sequence (P10636 other isoform, or with tags, fused parts or gaps)": "as above", "experiment": "Tau-Flag PLA, Tau-LckSH3", "type": "cell-based", "details": "15 μM, HEK-293 cells", "procedure": "(§1) Tau-Flag PLA for Tau-SH3 interactions: To clone the SH3 constructs, a C-terminal Flag tag was added to the Tau construct using PCR, then the Tau sequence was replaced with the desired SH3 domain using In-Fusion HD cloning kit (Takara Bio). Next, an N-terminal GST tag was added to help expression using In-Fusion, resulting in GST-SH3-Flag plasmids. As a negative control, restriction enzymes were used to remove the FynSH3 from the FynSH3 construct, resulting in GST-Flag. All sequences were confirmed with Sanger sequencing, and expression in HEK-293 cells was verified by western blot and immunocytochemistry. Plating and experimental timeline was the same as above. Cells were transfected with 125 ng of Tau-mKate2 and 500 ng SH3 plasmid with 1.5 μL Fugene. compound no. 69 was applied to final concentration 15 μM. For Tau-SH3 PLA, we used Dako Tau (1:1000) and Flag (1:1000) primary antibodies."}, "[3]": {"molecular_target": "Tau-BIN1SH3 interaction (Homo sapiens (Human), UniProt P10636)", "sequence (P10636 other isoform, or with tags, fused parts or gaps)": "as above", "experiment": "Tau-Flag PLA, Tau-BIN1SH3", "type": "cell-based", "details": "15 μM, HEK-293 cells", "procedure": "as §1"}}, "note": "Entries after “also recorded” stand apart in the source; their conditions may differ.", "data": [{"smiles": "O=C(CN1CCOc2ccccc21)Nc1nnc(-c2ccccn2)[nH]1", "note": "[compound no. 69]", "values": [{"measurement": "ΔG, ITC with full-length Tau", "setting": "[1]; 25° C.", "value": -6.7, "unit": "kcal/mol"}, {"measurement": "ΔH, ITC with full-length Tau", "setting": "[1]; 25° C.", "value": -1.5, "unit": "kcal/mol"}, {"measurement": "Kd", "setting": "[1]; 25° C., read-out: Kd, ITC with full-length Tau", "value": 11.9, "unit": "µM"}, {"measurement": "n, ITC with full-length Tau", "setting": "[1]; one set of sites model", "value": 0.9}, {"measurement": "Tau-LckSH3 interaction, Tau-Flag PLA", "setting": "[2]", "value": "strongly inhibited; also recorded: inhibits Tau-LckSH3 interaction"}, {"measurement": "Tau-BIN1SH3 interaction, Tau-Flag PLA", "setting": "[3]", "value": "moderately inhibited; also recorded: inhibits Tau-BIN1SH3 interaction"}]}]}
